According to patent US11655221B2, “Certain (2S)-N-[(1S)-1-cyano-2-phenylethyl]-1,4-oxazepane-2-carboxamides as dipeptidyl peptidase 1 inhibitors” (AstraZeneca AB, priority 2014, dated 2023):

Columns and labels:
[1] = Test B: In-vitro competitive aortic tissue binding assay; parameters: species or system rat; details: 100 μM test compound, competition with [14C]-labelled WO2010/128324 Ex. 3, categories strong binder, medium binder, no binder
Method: Test B: In-Vitro Competitive Aortic Tissue Binding Assay
Aortic homogenate was prepared from the thoracic aortae of Han Wistar rats. Freshly isolated to thoracic aortae were frozen, and later thawed and stripped of non-elastic material.
Homogenate concentration was adjusted to 30 mg/mL in Puck's saline, and aliquots were stored at −80° C. until use. Positive and negative control compounds and test compounds were made up to 100 mM in DMSO, and added to 1 mL aliquots of aortic homogenate in Puck's saline for a final concentration of 100 μM. Homogenate samples were pre-incubated with test compounds at 37° C., rotating, overnight. [^14C]4-Amino-N-[(1S)-1-cyano-2-(4′-cyanobiphenyl-4-yl)ethyl]tetrahydro-2H-pyran-4-carboxamide was then added to all samples to a final concentration of 100 μM, and samples were incubated at 37° C., rotating, for a further 2 h. Protein was precipitated from each sample by the addition of 10 mL acetone, pre-chilled to −20° C. Samples were left overnight at −20° C. to allow complete precipitation. Precipitate was pelleted by centrifugation at 4,500×g at 4° C. for 20 min, an aliquot of supernatant was removed for analysis, and the remainder of the supernatant discarded. Precipitate was washed by resuspension in 10 mL 80% methanol in distilled water, and re-pelleted by centrifugation at 4,500×g at 4° C. for 20 min. […] After final wash, precipitate was air-dried, and dissolved overnight in 1 mL NCSII Tissue Solubiliser. 1 mL aliquots of supernatants were added to 5 mL Ultima Gold scintillation fluid (Perkin Elmer, MA, U.S.A.), and 1 mL solubilised pellets were added to 5 mL Hionic-Fluor scintillation fluid (Perkin Elmer, Mass., U.S.A.). Radioactivity of samples was determined on a Beckman LS6500 multipurpose scintillation counter (Beckman Coulter, IN, U.S.A.). […] Duplicate samples were tested for each compound on each experimental occasion, and at least two experiments were run for each test compound. […] 1-way ANOVA and Bonferroni's multiple comparison tests were performed to calculate significance of differences from vehicle control.

[2] = molecular target: recombinant human DPP1 (rhDPP1) (Homo sapiens (Human), UniProt P53634); assay: Test A1: Fluorescence assay for recombinant human (RH) DPP1; format: biochemical; details: Test A1, H-Gly-Arg-AMC substrate, 22° C. (Examples 1-35)
Method: Test A1: Fluorescence Assay for Recombinant Human (RH) DPP1
The activity of DPP1 was determined by measuring the enzymatic release of aminomethyl coumarin (AMC) from the peptide substrate (H-Gly-Arg-AMC), which leads to an increase in fluorescence intensity at λex=350 nm and λem=450 nm. The assay was carried out in black 384 well plates in a final volume of 50 μl at 22° C. The assay conditions contained the following: 25 mM piperazine buffer pH 5.0; 50 mM NaCl, 5 mM DTT; 0.01% (v/v) Triton X-100; 100 μM H-Gly-Arg-AMC and rhDPP1 (˜50 pM). […] Routinely, inhibitors were pre-incubated with rhDPP1 for 30-60 min prior to the addition of the peptide substrate to start the reaction for a further 60 min at 22° C.

[3] = Quantitative whole-body autoradiography (QWBA), aortic retention; format: in vivo

recombinant human DPP1 (rhDPP1), sequence (P53634 231-394): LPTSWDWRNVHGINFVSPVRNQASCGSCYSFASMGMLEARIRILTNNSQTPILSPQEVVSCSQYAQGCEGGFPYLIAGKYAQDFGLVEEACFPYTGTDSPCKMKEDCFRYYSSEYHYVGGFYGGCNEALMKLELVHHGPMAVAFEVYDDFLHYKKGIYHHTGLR
recombinant human DPP1 (rhDPP1), sequence (P53634 25-143): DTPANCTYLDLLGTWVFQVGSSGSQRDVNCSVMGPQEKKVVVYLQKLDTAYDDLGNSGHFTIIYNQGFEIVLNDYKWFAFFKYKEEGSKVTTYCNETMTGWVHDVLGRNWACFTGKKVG
recombinant human DPP1 (rhDPP1), sequence (P53634 395-463): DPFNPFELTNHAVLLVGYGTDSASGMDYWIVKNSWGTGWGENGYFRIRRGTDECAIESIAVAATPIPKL

| Structure (SMILES) | Aortic Tissue Binding [1] | DPP1 activity, pIC50 [2] | aortic retention in rat QWBA studies [3] |
| --- | --- | --- | --- |
| Cn1c(=O)oc2ccc(-c3ccc(C[C@@H](C#N)NC(=O)[C@@H]4CNCCCO4)cc3)cc21 [Example 2, (2S)—N-{(1S)-1-Cyano-2-[4-(3-methyl-2-oxo-2,3-dihydro-1,3-benzoxazol-5-yl)phenyl]ethyl}-1,4-oxazepane-2-carboxamide] | No binder | – | – |
| N#Cc1ccc(-c2ccc(C[C@@H](C#N)NC(=O)[C@@H]3CCCCN3)cc2)cc1 [WO2009/074829 (Example 24)] | Binder | – | – |
| CN1C(=O)CNc2ccc(-c3ccc(C[C@@H](C#N)NC(=O)[C@@H]4CNCCCO4)cc3)cc21 [Example 35, (2S)—N-{(1S)-1-Cyano-2-[4-(4-methyl-3-oxo-1,2,3,4-tetrahydroquinoxalin-6-yl)phenyl]ethyl}-1,4-oxazepane-2-carboxamide] | – | 7.61 | – |
| Cn1c(=O)oc2ccc(-c3ccc(C[C@@H](C#N)NC(=O)C4(N)CCOCC4)cc3)cc21 [WO2010/128324 (Example 17)] | Strong binder | – | – |
| Cn1c(=O)oc2ccc(-c3ccc(C[C@@H](C#N)NC(=O)[C@@H]4CCCCN4)cc3)cc21 [WO2009/074829 (Example 96)] | Medium binder | – | – |
| N#Cc1ccc(-c2ccc(C[C@@H](C#N)NC(=O)C3(N)CCOCC3)cc2)cc1 [WO2010/128324 (Ex. 3), 4-amino-N-[(1S)-1-cyano-2-(4′-cyanobiphenyl-4-yl)ethyl]tetrahydro-2H-pyran-4-carboxamide] | Strong binder (reference) | – | high level of aortic retention |
